Measurements: the CheMixHub drug solubility set

Assay: xn = mol fraction of the nth substance listed, in the solute-free solvent

Cl.NC(C=O)C(O)C(O)C(O)CO (stereo unspecified) + O + CCO
solubility (g/100 g solution)
Conditions	283.15 K	288.15 K	293.15 K	298.15 K	303.15 K	308.15 K	313.15 K	318.15 K	323.15 K
x2 = 0.4	0.614	0.658	0.736	0.832	0.899	0.944	1.08	1.18	1.27
x2 = 0.5	1.17	1.37	1.55	1.68	1.79	2.1	2.32	2.52	2.83
x2 = 0.6	2.21	2.56	2.9	3.34	3.6	3.91	4.59	4.86	5.43
x2 = 0.7	3.86	4.61	5.18	5.66	6.46	7.67	8.39	9.2	10.5
x2 = 0.8	6.88	7.72	8.59	9.69	10.7	11.8	13.1	14.6	16.1
x2 = 0.9	12.3	13.1	14.5	16.1	17.4	19	20.6	22.3	23.9

CCc1cccc2c3c([nH]c12)C(CC)(CC(=O)O)OCC3 (stereo unspecified) + COC(C)=O + CCCCCC
solubility (g/100 g solution)
Conditions	278.15 K	283.15 K	288.15 K	293.15 K	298.15 K	303.15 K	308.15 K	313.15 K	318.15 K	323.15 K
x2 = 0.2255	1.11	1.18	1.26	1.35	1.42	1.5	1.61	1.69	1.76	1.86
x2 = 0.4369	3.55	3.98	4.43	4.96	5.39	5.87	6.35	6.88	7.34	7.96
x2 = 0.6357	4.26	5.33	6.41	7.66	8.86	9.93	11.4	12.9	14.1	15.7
x2 = 0.8229	10.8	12.1	13.6	15.1	16.7	18.3	20.2	22.4	24.4	26

N#CC(c1ccc(Cl)cc1)c1c(Cl)cc(-n2ncc(=O)[nH]c2=O)cc1Cl (stereo unspecified) + CN(C)C=O + CCO
solubility (g/100 g solution)
Conditions	283.15 K	288.15 K	293.15 K	298.15 K	303.15 K	308.15 K	313.15 K	318.15 K	323.15 K
x2 = 0.1361	3.28	3.86	4.52	5.25	6.05	6.91	7.87	8.89	9.99
x2 = 0.2959	5.7	6.56	7.46	8.51	9.59	10.8	12	13.4	14.7
x2 = 0.486	8.24	9.37	10.4	11.7	12.9	14.2	15.7	17.2	18.8
x2 = 0.716	10.6	11.8	12.9	14.3	15.6	17	18.5	20	21.6

Cc1nc(C)c(C)nc1C + CO + CC#N
solubility (g/100 g solution)
Conditions	273.15 K	278.15 K	283.15 K	288.15 K	293.15 K	298.15 K	303.15 K	308.15 K	313.15 K
x2 = 0.1	12.7	15	18.1	21.4	25.1	28.9	33.9	37.6	44.6
x2 = 0.2	17.3	20.5	23.4	26.7	30.8	34.9	40.1	43.5	50.5
x2 = 0.3	21.2	24.5	28.2	31.8	36.5	40.2	46	49.2	55.7
x2 = 0.4	25.6	28.9	32.5	36.4	41	44.3	50	53.8	60.4
x2 = 0.5	28.6	32	36.6	39.9	45.1	48.2	53.4	57.3	63.5
x2 = 0.6	31.3	34.5	39.2	42.7	47.6	51.5	56.2	60.5	67.4
x2 = 0.7	33.6	36.1	40.8	44.6	49.4	53.8	59	63.1	70
x2 = 0.8	34.6	37.3	42.2	45.7	50.8	54.8	61.3	64.9	71.2
x2 = 0.9	35	37.6	42.7	45.6	51	54.9	61.9	65.3	70.7
